Laboratory results as given in patent publication US5266571A, “Treatment of hemorrhoids with 5-HT2 antagonists” (priority 1992, dated 1993).
pIC50: −log10 of the molar value. Structures can show the parent of a compound that is named as a salt. Where two headings read alike, the source gives them in different places.

Columns and labels:
[1] = molecular target: 5-HT2 (Homo sapiens, UniProt P28223); assay: Receptor Blocking Profile: inhibition of labeled 5-HT binding, 5-HT2
Method: (§1) The receptor blocking profile is determined as follows: Labeled 5-HT is mixed with a purified preparation containing the receptor. The amount of labeled material that attaches itself to the receptor and cannot be washed off is calculated. In a series of other similar tubes, the same quantity of labeled 5-HT is mixed with increasing concentrations of the antagonist which will antagonize the binding of 5-HT to the receptor. Decreasing quantities of the labeled material will bind to the receptor. The concentration of the antagonist that inhibits the binding by 50% is then calculated.

[2] = molecular target: Alpha-receptor; assay: Receptor Blocking Profile, Alpha-receptor; type: binding; conditions: read-out: Receptor Blocking Profile IC-50, Alpha-receptor
Method: (§2) The IC- 50 is the concentration that inhibits agonist binding to the
(§3) receptor by 50%. The better the blocker a compound is, the smaller is the
(§4) concentration thereof needed to block the receptor, i.e., the smaller the
(§5) IC-50, the better receptor blocker or antagonist the compound is.
as §1

[3] = test system: human colon veins; assay: Activity against 5-HT on the human colon in vitro (contraction of human colonic vein rings); conditions: for blocking contractile effects of 5-HT on human colon rings, correlation with receptor blocking potencies: human colon rings in vitro, compared with the receptors tested; for pIC50: read-out: IC-50, activity against 5-HT on the human colon in vitro
Method: Human colonic vein rings were isolated from discarded human colon tissue following surgery (colostomy). The rings were prepared immediately after surgery and were suspended in buffered physiological saline. The contractions produced by the rings in response to the addition of 5-HT in vitro were measured. The effects of three selected 5-HT2 antagonist compounds on antagonizing 5-HT contractile effects were also determined.
This activity is determined as follows: Rings of human colon veins are prepared and hung in a tissue bath. The contractions of the rings are monitored. Adding 5-HT causes the rings to contract. Pre-addition of increasing concentrations of the antagonist result in lesser contractions. The amount of antagonist causing a 50% inhibition of the contractions is then calculated.

[4] = molecular target: 5-HT1; assay: Receptor Blocking Profile, 5-HT1; type: binding; conditions: read-out: Receptor Blocking Profile IC-50, 5-HT1
Method: as §2, §3, §4, §5, §1

[5] = molecular target: Dopamine-2 (Homo sapiens, UniProt P14416); assay: Receptor Blocking Profile, Dopamine-2; type: binding
Sequence of Dopamine-2 (P14416 whole entry): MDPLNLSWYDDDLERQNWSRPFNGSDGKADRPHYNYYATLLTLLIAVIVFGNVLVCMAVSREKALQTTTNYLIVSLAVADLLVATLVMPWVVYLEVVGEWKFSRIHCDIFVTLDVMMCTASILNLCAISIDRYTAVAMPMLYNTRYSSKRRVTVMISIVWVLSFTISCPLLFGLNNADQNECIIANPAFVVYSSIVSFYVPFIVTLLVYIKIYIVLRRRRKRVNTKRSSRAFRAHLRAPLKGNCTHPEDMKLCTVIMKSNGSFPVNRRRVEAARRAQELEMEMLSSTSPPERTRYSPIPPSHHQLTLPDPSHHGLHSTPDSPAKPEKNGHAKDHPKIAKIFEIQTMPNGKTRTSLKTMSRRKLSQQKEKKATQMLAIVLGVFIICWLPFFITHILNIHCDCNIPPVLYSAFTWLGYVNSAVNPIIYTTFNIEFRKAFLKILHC

[6] = test system: 5-HT2 receptor; conditions: background statement; cited from earlier work
[7] = test system: 5-HT2 receptor; conditions: background statement; cited from earlier work; remark: listed apart in the source
[8] = human colon vein rings, antagonist pre-added, 5-HT-induced contraction
[9] = read-out: Receptor Blocking Profile IC-50, Dopamine-2

Sequence of 5-HT2 (P28223 whole entry, species assumed): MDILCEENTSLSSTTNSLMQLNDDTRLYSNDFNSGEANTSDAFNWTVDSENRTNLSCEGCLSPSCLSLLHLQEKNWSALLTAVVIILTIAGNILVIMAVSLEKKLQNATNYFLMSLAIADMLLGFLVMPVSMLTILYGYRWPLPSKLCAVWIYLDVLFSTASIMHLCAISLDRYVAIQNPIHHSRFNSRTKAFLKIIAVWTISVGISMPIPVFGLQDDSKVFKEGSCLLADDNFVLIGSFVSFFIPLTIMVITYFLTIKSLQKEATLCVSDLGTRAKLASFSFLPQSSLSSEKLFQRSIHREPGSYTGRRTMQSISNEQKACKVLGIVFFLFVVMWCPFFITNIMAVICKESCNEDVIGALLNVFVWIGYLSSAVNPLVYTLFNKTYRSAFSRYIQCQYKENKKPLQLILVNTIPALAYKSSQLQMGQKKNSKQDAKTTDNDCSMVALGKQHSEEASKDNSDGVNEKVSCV

SMILES	pIC50 [1]	pIC50 [2]	blocking contractile effects of 5-HT on human colon rings, correlation with receptor blocking potencies [3]	pIC50 [3, 8]	pIC50 [4]	pIC50 [5, 9]	pIC50 [5]	pIC50 ([1]; read-out: Receptor Blocking Profile IC-50, 5-HT2, displacement of labeled 5-HT)	pIC50 ([3]; Homo sapiens)	antagonism of binding of 5-HT to 5-HT2 receptor [6]	inhibition of modulation of phosphatidylinositol turnover by 5-HT2 receptor [7]
CN1CCCCC1CCc1ccccc1NC(=O)C=Cc1ccccc1.Cl (centres unmarked) [Compound I, 2'[2-(1-methyl-2-piperidyl)ethyl] cinnamanilide hydrochloride]	8.47	< 6.00	correlated best with their 5-HT2 blocking potencies	8.70	4.66	< 6.00	–	–	–	–	–
CCc1nn(CCCN2CCN(c3cccc(Cl)c3)CC2)c(=O)n1CCOc1ccccc1 [Compound II, 2-[3-[4-(3-chlorophenyl)-1-piperazinyl]propyl-5-ethyl-2,4-dihydro-4-(2-phenoxyethyl)-3H-1,2,4-triazol-3-one hydrochloride]	–	6.80	correlated best with their 5-HT2 blocking potencies	8.00	< 6.00	–	< 6.00	–	–	–	–
O=C1CC2(CCCC2)CC(=O)N1CCCCN1CCN(c2nsc3ccccc23)CC1 [Compound III, 8-[4-[4-(1,2-benzisotriazol-3-yl)-1-piperazinyl]butyl]-8-azaspiro[4,5]decane-7,9-dione hydrochloride]	–	7.33	correlated best with their 5-HT2 blocking potencies	–	7.90	8.08	–	8.77	9.00	–	–
O=C(c1ccc(F)cc1)C1CCN(CCn2c(=O)[nH]c3ccccc3c2=O)CC1 [ketanserin]	–	–	–	–	–	–	–	–	–	antagonized	inhibited
CN1C[C@@H](NS(=O)(=O)N(C)C)C[C@@H]2c3cccc4c3c(cn4C)C[C@H]21 [mesulergine]	–	–	–	–	–	–	–	–	–	antagonized	–
